Experimental findings from US20220127247A1, “N-(PYRIDIN-2-YL)PYRIDINE-SULFONAMIDE DERIVATIVES AND THEIR USE IN THE TREATMENT OF DISEASE” (NOVARTIS AG, priority 2019, published 2022) are described below.

The test addresses T1, delF508-CFTR (Homo sapiens, UniProt P13569, DEL508-508).
T1 construct: expressed in transfected cells
Briefly: Measurement of delF508-CFTR-HRP surface expression in CFBE41o- cells. It counts as cell-based. The conditions noted are these: for EC50: HRP-tagged delF508-CFTR in CFBE41o- cells, 24 h with compound, luminescence, 10-point curve, top 10 μM; for Emax: efficacy relative to reference compound 3-(6-(1-(2,2-difluorobenzo[d][1,3]dioxol-5-yl)cyclopropane-1-carboxamido)-3-methylpyridin-2-yl)benzoic acid, CFBE41o- cells, 24 h, read-out: DelF508-CFTR-HRP Amax %. The text has this: Measurement of delF508-CFTR-HRP Surface Expression in CFBE41o-Cells
This assay quantifies the cell surface expressions of the mutant CFTR channel using an extracellular HRP tag.
A cellular assay was developed to measure surface expression of horseradish peroxidase (HRP) tagged delF508-CFTR in the human bronchial epithelial immortalized CFBE41o-cell line (Phuan, P. W., et al, (2014) Molecular Pharmacology 86:42-51). Specifically, the HRP sequence was inserted into the fourth extracellular loop of delF508-CFTR and stably expressed in CFBE41o-cells. Cells were seeded in 384 well plate at a density of 5000 cells/well and incubated at 37° C. for 12 to 24 hours in medium (Gibco MEM #11095, 10% FBS, 10 mM HEPES, […], 200 μg/mL G418, 3 μg/mL Puromycin). The delF508-CFTR-HRP expression was induced with 500 ng/mL doxycycline (Sigma D-9891, dissolved in H2O and sterile filtered) in medium and the cells were incubated at 37° C. for 48 h. Old medium was removed and fresh medium was added containing 500 ng/mL doxycycline and unknown test compound at required test concentration in DMSO, not exceeding 0.5% final DMSO concentration. The highest concentration tested was 10 μM with a 10-point concentration response curve using a 3-fold dilution. After addition of compounds, the cells were incubated for 24 h at 37° C. On the final day, cells were washed four times in PBS containing 1 mM MgCl2 and 0.1 mM CaCl2. HRP-Substrate (SuperSignal ELISA Pico, Fisher #37069) 20 μl/well was added and the luminescence signal was determined (Viewlux, Perkin Elmer). Light was emitted upon addition of exogenous HRP-Substrate only when delF508-CFTR-HRP reached the cell surface and the HRP tag was accessible to the HRP-Substrate (note: HRP-Substrate cannot cross the lipid bilayer to reach delF508-CFTR-HRP misfolded within the cell).
The median activity for the lowest concentration of the compounds on each assay plate was calculated and this value was used to normalize the signal for each well on the respective plate. Three replicates at each concentrations for every compound were run to determine one EC50. The median value was determined and used to calculate compound activities as described below. Effective half maximal values (EC50) were calculated for each compound by performing logistic regression on measured dose-response data points using the equation: […]
where “Y” is the observed activity, “Bottom” is the lowest observed value, “Top” is the highest observed value, and the “Hill coefficient” gives the largest absolute value of the slope. The curve fitting is carried out by a curve fitting program implemented at GNF using Matlab (Mathworks).
The dose response curves also were used to calculate Fold Change (FC) using the equation: […]
Compound efficacy relative to the reference compound 3-(6-(1-(2,2-difluorobenzo[d][1,3]dioxol-5-yl)cyclopropane-1-carboxamido)-3-methylpyridin-2-yl)benzoic acid was determined using the following formula: […]

Structures are written as SMILES.

T1 sequence (P13569 with tags, fused parts or gaps DEL508-508): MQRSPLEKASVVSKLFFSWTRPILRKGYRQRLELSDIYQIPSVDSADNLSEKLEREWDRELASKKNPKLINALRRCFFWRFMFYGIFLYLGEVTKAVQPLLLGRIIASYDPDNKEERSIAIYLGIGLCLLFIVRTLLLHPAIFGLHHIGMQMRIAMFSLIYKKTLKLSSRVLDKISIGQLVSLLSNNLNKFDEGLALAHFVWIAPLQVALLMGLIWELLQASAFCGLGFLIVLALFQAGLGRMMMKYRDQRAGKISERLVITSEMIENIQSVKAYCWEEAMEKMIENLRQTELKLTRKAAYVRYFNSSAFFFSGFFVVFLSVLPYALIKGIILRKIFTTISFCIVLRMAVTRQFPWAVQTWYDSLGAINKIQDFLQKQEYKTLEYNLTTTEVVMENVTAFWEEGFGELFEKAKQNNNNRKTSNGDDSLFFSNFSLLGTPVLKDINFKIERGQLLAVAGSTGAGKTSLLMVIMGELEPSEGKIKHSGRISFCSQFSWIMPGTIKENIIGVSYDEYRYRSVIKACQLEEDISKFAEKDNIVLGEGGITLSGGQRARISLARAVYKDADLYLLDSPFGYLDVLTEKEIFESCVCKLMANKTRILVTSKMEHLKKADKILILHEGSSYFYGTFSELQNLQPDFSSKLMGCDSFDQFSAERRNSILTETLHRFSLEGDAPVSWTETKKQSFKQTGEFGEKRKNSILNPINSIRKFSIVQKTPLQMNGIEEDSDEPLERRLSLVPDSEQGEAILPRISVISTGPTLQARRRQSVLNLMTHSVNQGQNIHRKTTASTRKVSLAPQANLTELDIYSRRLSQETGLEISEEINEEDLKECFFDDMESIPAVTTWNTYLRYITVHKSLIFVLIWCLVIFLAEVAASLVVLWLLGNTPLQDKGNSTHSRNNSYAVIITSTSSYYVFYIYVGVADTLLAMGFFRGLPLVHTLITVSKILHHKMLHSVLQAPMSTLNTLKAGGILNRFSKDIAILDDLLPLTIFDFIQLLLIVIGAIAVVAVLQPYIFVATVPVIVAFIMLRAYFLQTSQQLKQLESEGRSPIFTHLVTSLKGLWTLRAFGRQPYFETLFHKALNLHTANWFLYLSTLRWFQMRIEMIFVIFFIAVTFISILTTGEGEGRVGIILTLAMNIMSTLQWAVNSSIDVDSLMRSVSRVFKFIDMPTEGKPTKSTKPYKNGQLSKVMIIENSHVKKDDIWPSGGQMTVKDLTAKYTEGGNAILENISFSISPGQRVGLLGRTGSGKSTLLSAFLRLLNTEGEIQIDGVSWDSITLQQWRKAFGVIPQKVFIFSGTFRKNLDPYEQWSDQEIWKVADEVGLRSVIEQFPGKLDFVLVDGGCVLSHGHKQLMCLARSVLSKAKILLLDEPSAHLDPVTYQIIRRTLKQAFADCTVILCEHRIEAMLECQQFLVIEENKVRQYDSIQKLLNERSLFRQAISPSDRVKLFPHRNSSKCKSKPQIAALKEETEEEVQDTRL

On to `Cc1ccccc1-c1nc(NS(=O)(=O)c2cccc(N(C)CC3(C(=O)O)CCCC3)n2)ccc1C(F)(F)F` [Compound 130, 1-((methyl(6-(N-(6-(o-tolyl)-5-(trifluoromethyl)pyridin-2-yl)sulfamoyl)pyridin-2-yl)amino)methyl)cyclopentane-1-carboxylic Acid], for which the EC50 was determined as 2060 nM and the Emax was 403%.

Consider `Cc1ccccc1-c1nc(NS(=O)(=O)c2cccc(NCCCC(=O)O)n2)ccc1C(F)(F)F` [Compound 36, 4-((6-(N-(6-(o-tolyl)-5-(trifluoromethyl)pyridin-2-yl)sulfamoyl)pyridin-2-yl)amino)butanoic Acid], for which the EC50 was 2960 nM and the Emax stood at 222%.

With `CCN(CCC(=O)O)c1cc(S(=O)(=O)Nc2ccc(Cl)c(-c3cc(F)ccc3C)n2)ccn1` [Compound 144, 3-((4-(N-(5-chloro-6-(5-fluoro-2-methylphenyl)pyridin-2-yl)sulfamoyl)pyridin-2-yl)(ethyl)amino)propanoic Acid], the EC50 is 4550 nM and the Emax is 52%.

`CC1(C(=O)O)CCCN(c2cccc(S(=O)(=O)Nc3ccc(Cl)c(-c4ccccc4-c4ccccc4)n3)n2)C1` (centres unmarked) [Compound 29, 1-(6-(N-(6-([1,1′-biphenyl]-2-yl)-5-chloropyridin-2-yl)sulfamoyl)pyridin-2-yl)-3-methylpiperidine-3-carboxylic Acid]: the EC50 was 1300 nM and the Emax was found to be 969%.

Turning to `CCCCN(CCC(=O)O)c1cccc(S(=O)(=O)Nc2ccc(C(F)(F)F)c(-c3ccccc3C)n2)n1` [Compound 152, 3-(butyl(6-(N-(6-(o-tolyl)-5-(trifluoromethyl)pyridin-2-yl)sulfamoyl)pyridin-2-yl)amino)propanoic Acid], the EC50 amounted to 780 nM and the Emax was determined as 641%.

As for `Cc1ccccc1-c1nc(NS(=O)(=O)c2cccc(NCC(=O)O)n2)ccc1C(F)(F)F` [Compound 146, (6-(N-(6-(o-tolyl)-5-(trifluoromethyl)pyridin-2-yl)sulfamoyl)pyridin-2-yl)glycine], the EC50 amounted to 2500 nM and the Emax is 60%.

As for `CCN(CCC(=O)O)c1cccc(S(=O)(=O)Nc2ccc(C(F)(F)F)c(-c3cc(F)ccc3C3CC3)n2)n1` [Compound 111, 3-((6-(N-(6-(2-cyclopropyl-5-fluorophenyl)-5-(trifluoromethyl)pyridin-2-yl)sulfamoyl)pyridin-2-yl)(ethyl)amino)propanoic Acid], the EC50 stood at 1780 nM.

For `O=C(O)CCCNc1cccc(S(=O)(=O)Nc2ccc(C(F)(F)F)c(-c3ccccc3C3CC3)n2)n1` [Compound 40, 4-((6-(N-(6-(2-cyclopropylphenyl)-5-(trifluoromethyl)pyridin-2-yl)sulfamoyl)pyridin-2-yl)amino)butanoic Acid], the EC50 came out at 2530 nM and the Emax came out at 314%.

As for `CCc1ccccc1-c1nc(NS(=O)(=O)c2cccc(N3CCC(CC(=O)O)CC3)n2)ccc1C(F)(F)F` [Compound 15, 2-(1-(6-(N-(6-(2-ethylphenyl)-5-(trifluoromethyl)pyridin-2-yl)sulfamoyl)pyridin-2-yl)piperidin-4-yl)acetic Acid], the EC50 came out at 2140 nM and the Emax was found to be 397%.

Take `CCC(NC(=O)C1CCC(Nc2cccc(S(=O)(=O)Nc3ccc(Cl)c(-c4ccccc4C)n3)n2)CC1)C(=O)O` (centres unmarked) [Compound 136, 2-(4-((6-(N-(5-chloro-6-(o-tolyl)pyridin-2-yl)sulfamoyl)pyridin-2-yl)amino)cyclohexane-1-carboxamido)butanoic Acid]: the EC50 came to 2310 nM and the Emax came out at 952%.

`Cc1ccccc1-c1nc(NS(=O)(=O)c2cccc(N(CCCCC(=O)O)C(C)C)n2)ccc1C(F)(F)F` [Compound 101, 5-(isopropyl(6-(N-(6-(o-tolyl)-5-(trifluoromethyl)pyridin-2-yl)sulfamoyl)pyridin-2-yl)amino)pentanoic Acid]: the EC50 stood at 1590 nM.

For `Cc1ccc(F)cc1-c1nc(NS(=O)(=O)c2cccc(N3CCC(C)(CC(=O)O)C3)n2)ccc1C(F)(F)F` (centres unmarked) [Compound 55, 2-(1-(6-(N-(6-(5-fluoro-2-methylphenyl)-5-(trifluoromethyl)pyridin-2-yl)sulfamoyl)pyridin-2-yl)-3-methylpyrrolidin-3-yl)acetic Acid], the half-maximal effective concentration (EC50) was found to be 1680 nM and the Emax was determined as 457%.

`Cc1ccc(F)cc1-c1nc(NS(=O)(=O)c2cccc(N3CCCC(C)(CC(=O)O)C3)n2)ccc1C(F)(F)F` (centres unmarked) [Compound 52, 2-(1-(6-(N-(6-(5-fluoro-2-methylphenyl)-5-(trifluoromethyl)pyridin-2-yl)sulfamoyl)pyridin-2-yl)-3-methylpiperidin-3-yl)acetic Acid]: the EC50 is 1490 nM.

As for `CCc1ccc(F)cc1-c1nc(NS(=O)(=O)c2cccc(N(CCCCC(=O)O)C(C)C)n2)ccc1C(F)(F)F` [Compound 99, 5-((6-(N-(6-(2-ethyl-5-fluorophenyl)-5-(trifluoromethyl)pyridin-2-yl)sulfamoyl)pyridin-2-yl)(isopropyl)amino)pentanoic Acid], the EC50 turned out to be 1330 nM.

As to `CCc1ccccc1-c1nc(NS(=O)(=O)c2cccc(OC3CCC(C(=O)O)CC3)n2)ccc1C(F)(F)F` (centres unmarked) [Compound 120, 4-((6-(N-(6-(2-ethylphenyl)-5-(trifluoromethyl)pyridin-2-yl)sulfamoyl)pyridin-2-yl)nxy)cyclohexane-1-carboxylic Acid], the EC50 amounted to 1390 nM and the Emax came out at 330%.

Turning to `CN(CCC(=O)O)c1cccc(S(=O)(=O)Nc2ccc(C(F)(F)F)c(-c3ccccc3C3CC3)n2)n1` [Compound 38, 3-((6-(N-(6-(2-cyclopropylphenyl)-5-(trifluoromethyl)pyridin-2-yl)sulfamoyl)pyridin-2-yl)(methyl)amino)propanoic Acid], the EC50 is 1700 nM and the Emax is 742%.

For the compound `C=Cc1ccccc1-c1nc(NS(=O)(=O)c2cccc(N3CCC[C@@H](CC(=O)OC)C3)n2)ccc1C(F)(F)F` [Compound 78, methyl (S)-2-(1-(6-(N-(5-(trifluoromethyl)-6-(2-vinylphenyl)pyridin-2-yl)sulfamoyl)pyridin-2-yl)piperidin-3-yl)acetate], the EC50 worked out at 1410 nM.

Regarding `Cc1ccc(F)cc1-c1nc(NS(=O)(=O)c2cccc(N(CCCCC(=O)O)C(C)C)n2)ccc1C(F)(F)F` [Compound 100, 5-((6-(N-(6-(5-fluoro-2-methylphenyl)-5-(trifluoromethyl)pyridin-2-yl)sulfamoyl)pyridin-2-yl)(isopropyl)amino)pentanoic Acid], the EC50 came to 2490 nM.

On to `O=C(O)CC1CCN(c2cccc(S(=O)(=O)Nc3ccc(C(F)(F)F)c(-c4ccccc4C4CCC4)n3)n2)CC1` [Compound 17, 2-(1-(6-(N-(6-(2-cyclobutylphenyl)-5-(trifluoromethyl)pyridin-2-yl)sulfamoyl)pyridin-2-yl)piperidin-4-yl)acetic Acid], for which the EC50 amounted to 1460 nM and the Emax amounted to 369%.

For the compound `Cc1cccc(C)c1-c1nc(NS(=O)(=O)c2cccc(N3CCC(CC(=O)O)CC3)n2)ccc1Cl` [Compound 5, 2-(1-(6-(N-(5-chloro-6-(2,6-dimethylphenyl)pyridin-2-yl)sulfamoyl)pyridin-2-yl)piperidin-4-yl)acetic Acid], the EC50 turned out to be 2580 nM and the Emax was 596%.

Turning to `Cc1cccc(C)c1-c1nc(NS(=O)(=O)c2ccnc(NCCC(=O)O)c2)ccc1Cl` [Compound 2, 3-((4-(N-(5-chloro-6-(2,6-dimethylphenyl)pyridin-2-yl)sulfamoyl)pyridin-2-yl)amino)propanoic Acid], the EC50 stood at 2720 nM and the Emax is 124%.

Regarding `Cc1ccccc1-c1nc(NS(=O)(=O)c2cccc(N3CCC[C@H](CC(=O)O)C3)n2)ccc1C(F)(F)F` [Compound 59, (R)-2-(1-(6-(N-(6-(o-tolyl)-5-(trifluoromethyl)pyridin-2-yl)sulfamoyl)pyridin-2-yl)piperidin-3-yl)acetic Acid], the EC50 turned out to be 2070 nM and the Emax was found to be 920%.
